Assay results published in patent US6274715A, “Tricyclic erythromycin derivatives” (priority 1997, dated 2001).
Values after ≈ are worked out from the molar mass of the structure shown.

What was measured:
Format in all cases: cell-based
[1] = tested on: MYCOBACTERIUM SMEGMATIS ATCC 114; experiment: In vitro antibacterial activity, MIC, BHI agar dilution; conditions: M. smegmatis ATCC 114, unit assumed
[2] = tested on: STAPHYLOCOCCUS AUREUS CMX 642A; experiment: as above; conditions: S. aureus CMX 642A, unit assumed
[3] = tested on: STAPHYLOCOCCUS AUREUS CMX 553; experiment: as above; conditions: S. aureus CMX 553, unit assumed
[4] = tested on: ENTEROBACTER AEROGENES ATCC 13048; experiment: as above; conditions: E. aerogenes ATCC 13048, unit assumed
CANDIDA ALBICANS CCH 442 = experiment: as above; conditions: C. albicans CCH 442, unit assumed
[5] = tested on: STAPHYLOCOCCUS AUREUS ATCC 6538P; experiment: as above; conditions: S. aureus ATCC 6538P, 35-37° C., 20 to 24 hours, unit assumed
[6] = tested on: PSEUDOMONAS AERUGINOSA DPHD-5263; experiment: as above; conditions: P. aeruginosa DPHD-5263, unit assumed
[7] = tested on: STAPHYLOCOCCUS AUREUS A-5278; experiment: as above; conditions: S. aureus A-5278, unit assumed
M[…] ATCC 9341 = experiment: as above; conditions: M. luteus ATCC 9341, unit assumed
Summary of the method: (§1)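 Twelve successive aqueous dilutions of compound in Brain Heart Infusion agar were inoculated with 1:100 culture dilutions (1:10 for slow growers such as Micrococcus, Streptococcus) by Steers replicator and incubated at 35-37° C for 20 to 24 hours. MIC was the lowest concentration giving no growth, slight haze or sparse colonies versus drug-free control.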

M[…] ATCC 4698 = experiment: as above; conditions: M. luteus ATCC 4698, unit assumed
Summary of the method: as §1

STR[…] 508 = experiment: as above; conditions: S. agalactiae CMX 508, unit assumed
Summary of the method: as §1

EN[…] ATCC 8043 = experiment: as above; conditions: E. faecium ATCC 8043, unit assumed
Summary of the method: as §1

[8] = tested on: STREPTOCOCCUS BOVIS A-5169; experiment: as above; conditions: S. bovis A-5169, unit assumed
[9] = tested on: PSEUDOMONAS AERUGINOSA DPHD-2862; experiment: as above; conditions: P. aeruginosa DPHD-2862, unit assumed
[10] = tested on: STAPHYLOCOCCUS AUREUS NCTC10649M; experiment: as above; conditions: S. aureus NCTC10649M, unit assumed
[11] = tested on: STAPHYLOCOCCUS AUREUS 1775; experiment: as above; conditions: S. aureus 1775, unit assumed
[12] = tested on: ACINETOBACTER CALCOACETICUS CMX 669; experiment: as above; conditions: A. calcoaceticus CMX 669, unit assumed
[13] = tested on: PSEUDOMONAS AERUGINOSA K799/61; experiment: as above; conditions: P. aeruginosa K799/61, unit assumed
[14] = tested on: STREPTOCOCCUS PYOGENES PIU 2548; experiment: as above; conditions: S. pyogenes PIU 2548, unit assumed
[15] = tested on: KLEBSIELLA PNEUMONIAE ATCC 8045; experiment: as above; conditions: K. pneumoniae ATCC 8045, unit assumed
ESCHERICHIA COLI JUHL = conditions: E. coli JUHL; BHI agar; unit assumed
[16] = tested on: STREPTOCOCCUS PYOGENES 930; experiment: In vitro antibacterial activity, MIC, BHI agar dilution; conditions: S. pyogenes 930, unit assumed
ESCHERICHIA COLI SS = experiment: as above; conditions: E. coli SS, unit assumed
ESCHERICHIA COLI DC-2 = experiment: as above; conditions: E. coli DC-2, unit assumed
PSEUDOMONAS CEPACIA 296I = experiment: as above; conditions: P. cepacia 296I, unit assumed
[17] = tested on: PSEUDOMONAS AERUGINOSA BMH10; experiment: as above; conditions: P. aeruginosa BMH10, unit assumed
ESCHERICHIA COLI KNK 437 = conditions: E. coli KNK 437; BHI agar; unit assumed
[18] = tested on: PSEUDOMONAS AERUGINOSA K799/WT; experiment: In vitro antibacterial activity, MIC, BHI agar dilution; conditions: P. aeruginosa K799/WT, unit assumed
[19] = tested on: PSEUDOMONAS AERUGINOSA 5007; experiment: as above; conditions: P. aeruginosa 5007, unit assumed
ESCHERICHIA COLI H560 = experiment: as above; conditions: E. coli H560, unit assumed
[20] = tested on: PROVIDENCIA STUARTII CMX 640; conditions: P. stuartii CMX 640; BHI agar; unit assumed
[21] = tested on: STREPTOCOCCUS PYOGENES EES61; experiment: In vitro antibacterial activity, MIC, BHI agar dilution; conditions: S. pyogenes EES61, unit assumed
[22] = tested on: STAPHYLOCOCCUS AUREUS A5177; experiment: as above; conditions: S. aureus A5177, unit assumed
[23] = tested on: STAPHYLOCOCCUS EPIDERMIDIS 3519; conditions: S. epidermidis 3519; BHI agar; unit assumed

Structure (SMILES)	MIC [1]	MIC [2]	MIC [3]	MIC [4]	MIC (CANDIDA ALBICANS CCH 442)	MIC [5]	MIC [6]	MIC [7]	MIC (M[…] ATCC 9341)	MIC (M[…] ATCC 4698)	MIC (STR[…] 508)	MIC (EN[…] ATCC 8043)	MIC [8]	MIC [9]	MIC [10]	MIC [11]	MIC [12]	MIC [13]	MIC [14]	MIC [15]	also measured
CC[C@H]1OC(=O)[C@H](C)C(=O)[C@H](C)[C@@H](O[C@@H]2O[C@H](C)C[C@H](N(C)C)[C@H]2O)[C@](C)(OC)C[C@@H](C)C2=N[C@H](COCCN3CCOCC3)CN3C(=O)O[C@@]1(C)[C@H]3[C@H]2C [Example 87]	12.5 µg/mL (≈ 16 µM)	1.56 µg/mL (≈ 2 µM)	1.56 µg/mL (≈ 2 µM)	> 100 µg/mL	> 100 µg/mL	1.56 µg/mL (≈ 2 µM)	> 100 µg/mL	> 100 µg/mL	0.1 µg/mL (≈ 0.128 µM)	1.56 µg/mL (≈ 2 µM)	0.2 µg/mL (≈ 0.256 µM)	0.39 µg/mL (≈ 0.499 µM)	0.05 µg/mL (≈ 0.064 µM)	> 100 µg/mL	1.56 µg/mL (≈ 2 µM)	> 100 µg/mL	> 100 µg/mL	3.1 µg/mL (≈ 3.97 µM)	3.1 µg/mL (≈ 3.97 µM)	> 100 µg/mL	MIC (ESCHERICHIA COLI JUHL): > 100 µg/mL; MIC [16]: > 100 µg/mL; MIC (ESCHERICHIA COLI SS): 1.56 µg/mL (≈ 2 µM); MIC (ESCHERICHIA COLI DC-2): > 100 µg/mL; MIC (PSEUDOMONAS CEPACIA 296I): > 100 µg/mL; MIC [17]: > 100 µg/mL; MIC (ESCHERICHIA COLI KNK 437): > 100 µg/mL; MIC [18]: > 100 µg/mL; MIC [19]: > 100 µg/mL; MIC (ESCHERICHIA COLI H560): > 100 µg/mL; MIC [20]: > 100 µg/mL; MIC [21]: 0.2 µg/mL (≈ 0.256 µM); MIC [22]: 1.56 µg/mL (≈ 2 µM); MIC [23]: 1.56 µg/mL (≈ 2 µM)
CCC1OC(=O)C(C)C(=O)C(C)C(OC2OC(C)CC(N(C)C)C2O)C(C)(OC)CC(C)C2=NC(CCOc3ccccc3)CN3C(=O)OC1(C)C3C2C (stereo not shown) [Example 91]	1.56 µg/mL (≈ 2.06 µM)	0.78 µg/mL (≈ 1.03 µM)	0.78 µg/mL (≈ 1.03 µM)	> 100 µg/mL	> 100 µg/mL	0.78 µg/mL (≈ 1.03 µM)	> 100 µg/mL	> 100 µg/mL	0.1 µg/mL (≈ 0.132 µM)	0.39 µg/mL (≈ 0.515 µM)	0.05 µg/mL (≈ 0.066 µM)	0.1 µg/mL (≈ 0.132 µM)	0.01 µg/mL (≈ 0.0132 µM)	> 100 µg/mL	0.78 µg/mL (≈ 1.03 µM)	> 100 µg/mL	> 100 µg/mL	12.5 µg/mL (≈ 16.5 µM)	0.39 µg/mL (≈ 0.515 µM)	> 100 µg/mL	MIC (ESCHERICHIA COLI JUHL): > 100 µg/mL; MIC [16]: 100 µg/mL (≈ 132 µM); MIC (ESCHERICHIA COLI SS): 3.1 µg/mL (≈ 4.09 µM); MIC (ESCHERICHIA COLI DC-2): > 100 µg/mL; MIC (PSEUDOMONAS CEPACIA 296I): > 100 µg/mL; MIC [17]: > 100 µg/mL; MIC (ESCHERICHIA COLI KNK 437): > 100 µg/mL; MIC [18]: > 100 µg/mL; MIC [19]: > 100 µg/mL; MIC (ESCHERICHIA COLI H560): > 100 µg/mL; MIC [20]: > 100 µg/mL; MIC [21]: 0.05 µg/mL (≈ 0.066 µM); MIC [22]: 0.78 µg/mL (≈ 1.03 µM); MIC [23]: 0.78 µg/mL (≈ 1.03 µM)
CCC1OC(=O)C(C)C(=O)C(C)C(OC2OC(C)CC(N(C)C)C2O)C(C)(OC)CC(C)C2=NC(COCc3cc(OC)cc(OC)c3)CN3C(=O)OC1(C)C3C2C (stereo not shown) [Example 100]	0.78 µg/mL (≈ 0.954 µM)	0.2 µg/mL (≈ 0.244 µM)	0.1 µg/mL (≈ 0.122 µM)	> 100 µg/mL	> 100 µg/mL	0.1 µg/mL (≈ 0.122 µM)	> 100 µg/mL	> 100 µg/mL	< 0.005 µg/mL	0.1 µg/mL (≈ 0.122 µM)	0.01 µg/mL (≈ 0.0122 µM)	0.01 µg/mL (≈ 0.0122 µM)	0.01 µg/mL (≈ 0.0122 µM)	> 100 µg/mL	0.05 µg/mL (≈ 0.0611 µM)	> 100 µg/mL	100 µg/mL (≈ 122 µM)	1.56 µg/mL (≈ 1.91 µM)	0.2 µg/mL (≈ 0.244 µM)	> 100 µg/mL	MIC (ESCHERICHIA COLI JUHL): > 100 µg/mL; MIC [16]: 100 µg/mL (≈ 122 µM); MIC (ESCHERICHIA COLI SS): 1.56 µg/mL (≈ 1.91 µM); MIC (ESCHERICHIA COLI DC-2): > 100 µg/mL; MIC (PSEUDOMONAS CEPACIA 296I): 100 µg/mL (≈ 122 µM); MIC [17]: > 100 µg/mL; MIC (ESCHERICHIA COLI KNK 437): > 100 µg/mL; MIC [18]: > 100 µg/mL; MIC [19]: > 100 µg/mL; MIC (ESCHERICHIA COLI H560): 50 µg/mL (≈ 61.1 µM); MIC [20]: > 100 µg/mL; MIC [21]: 0.01 µg/mL (≈ 0.0122 µM); MIC [22]: 0.1 µg/mL (≈ 0.122 µM); MIC [23]: 0.2 µg/mL (≈ 0.244 µM)
CC[C@H]1OC(=O)[C@H](C)C(=O)[C@H](C)[C@@H](O[C@@H]2O[C@H](C)C[C@H](N(C)C)[C@H]2O)[C@](C)(OC)C[C@@H](C)C2=N[C@H](COCc3ccc(F)cc3)CN3C(=O)O[C@@]1(C)[C@H]3[C@H]2C [Example 101]	0.39 µg/mL (≈ 0.503 µM)	0.1 µg/mL (≈ 0.129 µM)	0.05 µg/mL (≈ 0.0644 µM)	> 100 µg/mL	> 100 µg/mL	0.05 µg/mL (≈ 0.0644 µM)	> 100 µg/mL	> 100 µg/mL	≤ 0.005 µg/mL	0.02 µg/mL (≈ 0.0258 µM)	≤ 0.005 µg/mL	≤ 0.005 µg/mL	≤ 0.005 µg/mL	> 100 µg/mL	0.05 µg/mL (≈ 0.0644 µM)	> 100 µg/mL	100 µg/mL (≈ 129 µM)	1.56 µg/mL (≈ 2.01 µM)	0.05 µg/mL (≈ 0.0644 µM)	> 100 µg/mL	MIC (ESCHERICHIA COLI JUHL): > 100 µg/mL; MIC [16]: > 100 µg/mL; MIC (ESCHERICHIA COLI SS): 0.2 µg/mL (≈ 0.258 µM); MIC (ESCHERICHIA COLI DC-2): > 100 µg/mL; MIC (PSEUDOMONAS CEPACIA 296I): 100 µg/mL (≈ 129 µM); MIC [17]: > 100 µg/mL; MIC (ESCHERICHIA COLI KNK 437): > 100 µg/mL; MIC [18]: > 100 µg/mL; MIC [19]: > 100 µg/mL; MIC (ESCHERICHIA COLI H560): 100 µg/mL (≈ 129 µM); MIC [20]: > 100 µg/mL; MIC [21]: ≤ 0.005 µg/mL; MIC [22]: 0.05 µg/mL (≈ 0.0644 µM); MIC [23]: 0.1 µg/mL (≈ 0.129 µM)
